Laboratory results published in the supplement of paper PMC7017272.
± gives the standard deviation of the averaged measurements.

Experiments:
UT-SCC-24A = assay: relative IC50 (midpoint of the fitted curve; maximal inhibition may be below 50%); higher = less potent; settings: treatment time: 3 days
Experimental: (§1)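 HNSCC cell lines (500 cells/well, 384-well) were cultured on plastic, on top of (2D) or embedded (3D) in Matrigel or human leiomyoma matrix Myogel (500 ug/mL; Myogel 3D mixed with rat collagen I). Cells were treated for 3 days with 5 ten-fold concentrations of each drug, and viability was read by CellTiter-Glo. Viability was normalised to DMSO (0% inhibition) and 100 uM benzethonium chloride (100% inhibition) controls and fitted with the FIMM DSRT pipeline to give IC50 (nM), maximal % inhibition and the drug sensitivity score (DSS). Suffixes _1/_2/_3 on drug names are replicates.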

UT-SCC-106A = assay: relative IC50 (midpoint of the fitted curve; maximal inhibition may be below 50%); higher = less potent; settings: treatment time: 3 days
Procedure, shortened: (§2)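 HPV-negative HNSCC cell lines were seeded at 500 cells/well in 384-well plates on plastic, on Matrigel- or Myogel-coated wells (500 µg/mL), or embedded in Matrigel or Myogel plus rat collagen I. Compounds were given at five 10-fold concentrations for 3 days, and viability was read by CellTiter-Glo 2.0 luminescence. Signals were normalised to vehicle (0.1% DMSO) and cell-killing control wells. Percent-inhibition dose–response curves were fitted in the FIMM pipeline to derive IC50, maximal inhibition and drug sensitivity score.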

UT-SCC-14 [1] = assay: as above; settings: treatment time: 3 days
Procedure, shortened: as §2

UT-SCC-40 [2] = assay: as above; settings: treatment time: 3 days
Procedure, shortened: as §2

UT-SCC-42B [3] = assay: as above; settings: treatment time: 3 days
Procedure, shortened: as §2

UT-SCC-8 [4] = assay: as above; settings: treatment time: 3 days
Procedure, shortened: as §2

UT-SCC-44 = assay: as above; settings: treatment time: 3 days
Procedure, shortened: as §2

UT-SCC-28 [5] = assay: as above; settings: culture condition: embedded in Matrigel; treatment time: 3 days
Procedure, shortened: as §2

UT-SCC-73 = assay: as above; settings: treatment time: 3 days
Procedure, shortened: as §2

UT-SCC-42A [6] = assay: as above; settings: treatment time: 3 days
Procedure, shortened: as §2

UT-SCC-81 [7] = assay: as above; settings: treatment time: 3 days
Procedure, shortened: as §2

UT-SCC-24B [8] = assay: as above; settings: treatment time: 3 days
Procedure, shortened: as §2

UT-SCC-14 [9] = assay: maximal % inhibition of viability relative to DMSO; higher = stronger effect; settings: treatment time: 3 days
Experimental: as §1, with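 “DMSO” for “DMSO (0% inhibition)”, “and” for “and 100 uM”, “chloride” for “chloride (100% inhibition)”, “DSS.” for “the drug sensitivity score (DSS).”, “_1/_2/_3” for “_1/_2/_3 on drug names”, “replicates. Only inhibition-mode (IC50) fits are kept.” for “replicates.”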

UT-SCC-40 [10] = assay: as above; settings: treatment time: 3 days
Experimental: as §1, with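 “DMSO” for “DMSO (0% inhibition)”, “and” for “and 100 uM”, “chloride” for “chloride (100% inhibition)”, “DSS.” for “the drug sensitivity score (DSS).”, “_1/_2/_3” for “_1/_2/_3 on drug names”, “replicates. Only inhibition-mode (IC50) fits are kept.” for “replicates.”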

UT-SCC-42B [11] = assay: as above; settings: treatment time: 3 days
Experimental: as §1, with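 “DMSO” for “DMSO (0% inhibition)”, “and” for “and 100 uM”, “chloride” for “chloride (100% inhibition)”, “DSS.” for “the drug sensitivity score (DSS).”, “_1/_2/_3” for “_1/_2/_3 on drug names”, “replicates. Only inhibition-mode (IC50) fits are kept.” for “replicates.”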

UT-SCC-8 [12] = assay: as above; settings: treatment time: 3 days
Experimental: as §1, with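 “DMSO” for “DMSO (0% inhibition)”, “and” for “and 100 uM”, “chloride” for “chloride (100% inhibition)”, “DSS.” for “the drug sensitivity score (DSS).”, “_1/_2/_3” for “_1/_2/_3 on drug names”, “replicates. Only inhibition-mode (IC50) fits are kept.” for “replicates.”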

UT-SCC-28 [13] = assay: as above; settings: treatment time: 3 days
Experimental: as §1, with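 “DMSO” for “DMSO (0% inhibition)”, “and” for “and 100 uM”, “chloride” for “chloride (100% inhibition)”, “DSS.” for “the drug sensitivity score (DSS).”, “_1/_2/_3” for “_1/_2/_3 on drug names”, “replicates. Only inhibition-mode (IC50) fits are kept.” for “replicates.”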

UT-SCC-42A [14] = assay: as above; settings: treatment time: 3 days
Experimental: as §1, with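 “DMSO” for “DMSO (0% inhibition)”, “and” for “and 100 uM”, “chloride” for “chloride (100% inhibition)”, “DSS.” for “the drug sensitivity score (DSS).”, “_1/_2/_3” for “_1/_2/_3 on drug names”, “replicates. Only inhibition-mode (IC50) fits are kept.” for “replicates.”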

UT-SCC-81 [15] = assay: as above; settings: treatment time: 3 days
Experimental: as §1, with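 “DMSO” for “DMSO (0% inhibition)”, “and” for “and 100 uM”, “chloride” for “chloride (100% inhibition)”, “DSS.” for “the drug sensitivity score (DSS).”, “_1/_2/_3” for “_1/_2/_3 on drug names”, “replicates. Only inhibition-mode (IC50) fits are kept.” for “replicates.”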

UT-SCC-24B [16] = assay: as above; settings: treatment time: 3 days
Experimental: as §1, with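 “DMSO” for “DMSO (0% inhibition)”, “and” for “and 100 uM”, “chloride” for “chloride (100% inhibition)”, “DSS.” for “the drug sensitivity score (DSS).”, “_1/_2/_3” for “_1/_2/_3 on drug names”, “replicates. Only inhibition-mode (IC50) fits are kept.” for “replicates.”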

[17] = culture condition: on top of Myogel
[18] = culture condition: plastic 2D (no matrix)
[19] = culture condition: embedded in Matrigel
[20] = culture condition: on top of Matrigel
[21] = culture condition: embedded in Myogel + collagen I

For `Cn1cnc2c(F)c(Nc3ccc(Br)cc3Cl)c(C(=O)NOCCO)cc21` [Selumetinib], the “relative IC50” value (UT-SCC-24A; [17]) was 0.137 µM, the “relative IC50” value (UT-SCC-24A; [18]) was 0.0879 µM and the “relative IC50” value (UT-SCC-106A; [19]) was 0.0568 µM. For the same molecule, the “relative IC50” value (UT-SCC-106A; [18]) was 0.0563 µM, the “relative IC50” value (UT-SCC-14 [1]; [19]) was 0.0742 µM and the “relative IC50” value (UT-SCC-14 [1]; [20]) was 0.279 µM. The “relative IC50” value (UT-SCC-40 [2]; [19]) was 0.0509 µM, the “relative IC50” value (UT-SCC-40 [2]; [21]) was 0.0415 µM and the “relative IC50” value (UT-SCC-40 [2]; [20]) was 0.061 µM. The “relative IC50” value (UT-SCC-42B [3]; [19]) was 0.0868 µM, the “relative IC50” value (UT-SCC-42B [3]; [20]) was 0.266 µM and the “relative IC50” value (UT-SCC-42B [3]; [17]) was 0.268 µM. For the same molecule, the “relative IC50” value (UT-SCC-8 [4]; [19]) was 0.163 µM, the “relative IC50” value (UT-SCC-8 [4]; [20]) was 0.176 µM and the “relative IC50” value (UT-SCC-8 [4]; [17]) was 0.139 µM. For the same molecule, the “relative IC50” value (UT-SCC-44; [19]) was 0.0952 µM, the “relative IC50” value (UT-SCC-44; [20]) was 0.108 µM and the “relative IC50” value (UT-SCC-44; [17]) was 0.151 µM. The “relative IC50” value (UT-SCC-28 [5]) was 0.0799 µM, the “relative IC50” value (UT-SCC-73; [19]) was 0.08 µM and the “relative IC50” value (UT-SCC-73; [21]) was 0.0783 µM. For the same molecule, the “relative IC50” value (UT-SCC-73; [20]) was 0.0832 µM, the “relative IC50” value (UT-SCC-73; [17]) was 0.122 µM and the “relative IC50” value (UT-SCC-73; [18]) was 0.117 µM. For the same molecule, the “relative IC50” value (UT-SCC-42A [6]; [21]) was 0.263 µM, the “relative IC50” value (UT-SCC-42A [6]; [17]) was 0.111 µM and the “relative IC50” value (UT-SCC-81 [7]; [19]) was 0.0535 µM. For the same molecule, the “relative IC50” value (UT-SCC-81 [7]; [20]) was 0.0953 µM, the “relative IC50” value (UT-SCC-24B [8]; [19]) was 0.169 µM and the “relative IC50” value (UT-SCC-24B [8]; [21]) was 0.165 µM. The “relative IC50” value (UT-SCC-24B [8]; [20]) was 0.173 µM, the “relative IC50” value (UT-SCC-24B [8]; [17]) was 0.177 µM and the “relative IC50” value (UT-SCC-24B [8]; [18]) was 0.117 µM. The “maximal % inhibition of viability” value (UT-SCC-14 [9]; [19]) was 31 ± 16%, the “maximal % inhibition of viability” value (UT-SCC-14 [9]; [21]) was 26.1 ± 7.3% and the “maximal % inhibition of viability” value (UT-SCC-14 [9]; [20]) was 38.6 ± 9%. For the same molecule, the “maximal % inhibition of viability” value (UT-SCC-14 [9]; [17]) was 32.2 ± 8.8%, the “maximal % inhibition of viability” value (UT-SCC-14 [9]; [18]) was 35.5 ± 14% and the “maximal % inhibition of viability” value (UT-SCC-40 [10]; [19]) was 79.8 ± 1.3%. The “maximal % inhibition of viability” value (UT-SCC-40 [10]; [21]) was 62.5 ± 8%, the “maximal % inhibition of viability” value (UT-SCC-40 [10]; [20]) was 75.8 ± 3.5% and the “maximal % inhibition of viability” value (UT-SCC-40 [10]; [17]) was 52.1 ± 3.1%. The “maximal % inhibition of viability” value (UT-SCC-40 [10]; [18]) was 56.2 ± 5.7%, the “maximal % inhibition of viability” value (UT-SCC-42B [11]; [19]) was 67.7 ± 7.4% and the “maximal % inhibition of viability” value (UT-SCC-42B [11]; [20]) was 46.9 ± 14%. For the same molecule, the “maximal % inhibition of viability” value (UT-SCC-42B [11]; [17]) was 17.3 ± 1.7%, the “maximal % inhibition of viability” value (UT-SCC-42B [11]; [18]) was 25.6 ± 8.1% and the “maximal % inhibition of viability” value (UT-SCC-8 [12]; [19]) was 49.4 ± 8.9%. For the same molecule, the “maximal % inhibition of viability” value (UT-SCC-8 [12]; [21]) was 33.9 ± 6.9%, the “maximal % inhibition of viability” value (UT-SCC-8 [12]; [20]) was 47.1 ± 5.1% and the “maximal % inhibition of viability” value (UT-SCC-8 [12]; [17]) was 50.4 ± 5.8%. For the same molecule, the “maximal % inhibition of viability” value (UT-SCC-8 [12]; [18]) was 53.4 ± 9.7%, the “maximal % inhibition of viability” value (UT-SCC-28 [13]; [19]) was 38.9 ± 18% and the “maximal % inhibition of viability” value (UT-SCC-28 [13]; [21]) was 39.8 ± 4.3%. The “maximal % inhibition of viability” value (UT-SCC-28 [13]; [20]) was 35.8 ± 9.2%, the “maximal % inhibition of viability” value (UT-SCC-28 [13]; [18]) was 29.4 ± 9.5% and the “maximal % inhibition of viability” value (UT-SCC-42A [14]; [19]) was 54.2 ± 7.8%. For the same molecule, the “maximal % inhibition of viability” value (UT-SCC-42A [14]; [21]) was 24.9 ± 13%, the “maximal % inhibition of viability” value (UT-SCC-42A [14]; [20]) was 55.1 ± 8.1% and the “maximal % inhibition of viability” value (UT-SCC-42A [14]; [17]) was 40.7 ± 4.6%. The “maximal % inhibition of viability” value (UT-SCC-42A [14]; [18]) was 50.4 ± 6.9%, the “maximal % inhibition of viability” value (UT-SCC-81 [15]; [19]) was 87.8 ± 2% and the “maximal % inhibition of viability” value (UT-SCC-81 [15]; [21]) was 39.9 ± 7.8%. The “maximal % inhibition of viability” value (UT-SCC-81 [15]; [20]) was 82.63 ± 0.81%, the “maximal % inhibition of viability” value (UT-SCC-81 [15]; [17]) was 54.2 ± 2.4% and the “maximal % inhibition of viability” value (UT-SCC-81 [15]; [18]) was 68.7 ± 4.2%. For the same molecule, the “maximal % inhibition of viability” value (UT-SCC-24B [16]; [19]) was 87.67 ± 0.5%, the “maximal % inhibition of viability” value (UT-SCC-24B [16]; [21]) was 84 ± 4.5% and the “maximal % inhibition of viability” value (UT-SCC-24B [16]; [20]) was 86.67 ± 0.21%. For the same molecule, the “maximal % inhibition of viability” value (UT-SCC-24B [16]; [17]) was 82.5 ± 3.8% and the “maximal % inhibition of viability” value (UT-SCC-24B [16]; [18]) was 89.73 ± 0.6%.
